Residues, ends and D or L forms follow the SMILES beside them.
Tests used:
[1] = test system: Pseudomonas aeruginosa ATCC 19660 induced keratitis; test: Clinical grading of Pseudomonas keratitis in mice; assay type: in vivo, C57BL/6 mice; settings: scale 0-4
Protocol: C57BL/6 mice were infected in one eye with P. aeruginosa ATCC 19660 and treated with 40 μM Esc-1a(1-21)NH2 or vehicle control (PBS). In some animals (Pre-trt group) treatment with Esc-1a(1-21)NH2 was initiated 24 hrs prior to infection. […] There was no significant difference between the Esc-1a(1-21)NH2 pretreatment group and when treatment was begun after infection.
To determine a clinical score, neutrophil infiltration by myeloperoxidase assay (MPO assay) and viable bacterial cell counts in infected and control corneas of C57BL/6 mice with Pseudomonas aeruginosa ATCC 19660 keratitis following pre-treatment and post-infection treatment with Esc-1a(1-21)NH2 up to 5 days post-infection (PI) the following experiment was performed. In these experiments pre-treatment refers to a group of animals where treatment was initiated 24 hrs before infection then continued after infection.
Images of the uninfected control and infected eye were taken on days 1, 3 and 5 PI using a camera equipped slit lamp biomicroscope. Clinical grading of infection on days 1, 3 and 5 PI was by visualizing through a slit lamp and using an established grading scale (Table 2). A myeloperoxidase assay was used to quantitate the polymorphonuclear cell numbers in the infected and control corneas (data presented in FIG. 6). Viable counts for bacteria were recovered from corneas at day 1, 3 and 5 PI (FIG. 7).
1. IP injections of ketamine and xylazine mixture were given (final dose 100 and 10 mg/kg respectively) to anesthetize the mice.
2. Pre-treatment group-5 μl of peptide (40 μM) was instilled topically onto intact corneas—3 times in 24 h.
3. Day 0—Day of infection: • a. 3×1 mm parallel scratches were made at the center of the right cornea of the mice using a 271/2 gauge needle and 5 μl of P. aeruginosa ATCC19660 bacterial solution (1×10^6 CFU) was pipetted on the wounded cornea. • b. Topically pipetted 5 μl of 40 μM Esc-1a(1-21)NH2 or vehicle (PBS) on the cornea 2-times on Day 0 starting 5 hours after bacterial infection.
4. Day 1 post-infection: • a. Captured images and graded the infection using a slit lamp biomicroscope. • b. Harvested corneas from 2 mice per group, pooled the corneas and processed them to perform the MPO assay. • c. Instilled peptide or vehicle three times/24 hrs (6.30 am, 1.30 pm, 8.30 pm).
5. Repeated the peptide or vehicle treatment 3 times a day for the next 4 days.
6. In addition, captured images, graded the infection and repeated the MPO assay on Day 3 and 5 post-infection.
The mean clinical scores for the Esc-1a(1-21)NH2 treated and PBS vehicle control group at day 1, 3 and 5 PI obtained from 4 separate experiments where the size of inoculum was 1*10^6 CFU/5 μl were plotted (FIG. 5).

[2] = test system: human telomerase immortalized corneal epithelial cells (hTCEpi); test: Wound healing (cell migration) assay, corneal epithelial cells; assay type: cell-based; settings: hTCEpi monolayer
Protocol: The percentage of cell-covered area at each time point was determined and is reported on the y-axis. Control (Ctrl) represents cells not treated with the peptide. All data are the mean of at least three independent experiments ±SE.
To determine cell migration after treatment with Esc-1a(1-21)NH2, a wound healing assay was performed using human telomerase immortalized corneal epithelial cells (hTCEpi) (FIG. 9). Cells were cultured in Keratinocyte growth Medium-2 supplemented with growth factors and Normocin […] (KGM-2g). Cell migration was studied as follows: hTCEpi cells (70,000) suspended in KGM-2g were seeded on each side of ibidi culture inserts for live cell analysis (Ibidi, Munich, Germany). Inserts were placed into 35 mm dishes and incubated at 37° C. and 5% CO2 to allow cells grow to confluence. Afterwards, inserts were removed with sterile tweezers to create a cell-free area (“wound”) of approximately 500 μm; after a wash with 1 ml of PBS, 1 ml of Dulbecco's modified Eagle's medium (DMEM) supplemented with 4 mM L-glutamine, 5% fetal bovine serum (FBS) and the peptide at different concentrations was added. The dishes with inserts were placed in an appropriate incubator and the cells were allowed to migrate. […] The percentage of cell-covered area at each time was determined by WIMASIS Image Analysis program. […]

[3] = in vitro; settings: for Peptide Amount (%): 24 h, 37° C.; for remaining at 5 h, 0.575 mM / remaining at 24 h, 0.575 mM: human
Protocol: A total of 125 μl of a 0.92 mM solution of each peptide was incubated at 37° C. with 20 μl and 60 μl human serum. Samples were collected after 5 h and 24 h of incubation, precipitated with 200 μl methanol, and centrifuged for 2 min at 10,000 g.
The crude solution was then analyzed by high-performance liquid chromatography (HPLC) and mass spectrometry. HPLC was performed with a Vydac C18 column, and the crude solution was diluted 5 times with 0.1% trifluoroacetic acid before injection and monitored at 280 nm.

## CC[C@H](C)[C@H](NC(=O)CN)C(=O)N[C@@H](Cc1ccccc1)C(=O)N[C@@H](CO)C(=O)N[C@@H](CCCCN)C(=O)N[C@@H](CC(C)C)C(=O)N[C@@H](C)C(=O)NCC(=O)N[C@@H](CCCCN)C(=O)N[C@@H](CCCCN)C(=O)N[C@H](C(=O)N[C@@H](CCCCN)C(=O)N[C@@H](CC(N)=O)C(=O)N[C@@H](CC(C)C)C(=O)N[C@@H](CC(C)C)C(=O)N[C@H](C(=O)N[C@@H](CO)C(=O)NCC(=O)N[C@@H](CC(C)C)C(=O)N[C@@H](CCCCN)C(=O)NCC(N)=O)[C@@H](C)CC)[C@@H](C)CC [Esc-1a(1-21)NH2] (H-GIFSKLAGKKIKNLLISGLKG-NH2; N-terminus assumed)
[1]; pre-treated (40 μM topical from 24 h before infection), day 1 PI
  mean clinical score: 1.37±0.07
[1]; pre-treated, day 3 PI
  mean clinical score: 2.29±0.17
[1]; pre-treated, day 5 PI
  mean clinical score: 2.86±0.20
[1]; treated after infection (40 μM topical), day 1 PI
  mean clinical score: 1.38±0.22
[1]; treated after infection, day 3 PI
  mean clinical score: 2.36±0.24
[1]; treated after infection, day 5 PI
  mean clinical score: 2.89±0.26
[2]
  optimal concentration allowing complete coverage of the wound field: 0.005 µM
  time to maximum cell-covered area after peptide addition: 9 to 12 h
[3]; 10% human fresh serum
  Peptide Amount (%): approximately 22.19%
  remaining at 5 h, 0.575 mM: 44.4%
  remaining at 24 h, 0.575 mM: 22.2%
[3]; 30% human fresh serum
  Peptide Amount (%): ~11.5%
  remaining at 5 h, 0.575 mM: 20.9%
  remaining at 24 h, 0.575 mM: 11.5%
